Assay results taken from US11427869B2, “T cell balance gene expression, compositions of matters and methods of use thereof” (THE BROAD INSTITUTE, INC., priority 2015, dated 2022).

System: WT Th17 cells
Assay: Nanostring nCounter Th17 codeset (312 genes), SFA- or control-treated WT Th17 cells
Assay type: cell-based, mouse
Conditions: WT Th17 cells + SFA
Text: Applicants studied the contribution of lipid saturation to Th17 cell pathogenicity. […] Applicants analyzed the expression of a 312 gene signature of Th17 cell differentiation and function (Yosef et al., 2013) in SFA- or control-treated WT Th17 cells and in PUFA- or control-treated CD5L−/− Th17 cells differentiated with TGF-81+IL-6.
T cell differentiation culture. Naïve CD4+CD44−CD62L+CD25− T cells or Effector memory CD4+CD44+CD62L− were sorted using BD FACSAria sorter and activated with plate-bound anti-CD3 and anti-CD28 antibodies (both at 2 μg/ml) in the presence of cytokines at a concentration of 2.5×10^5 cells/ml. For Th17 differentiation: 2 ng/ml of rhTGFβ1, 2 ng/ml of rhTGFβ3, 25 ng/ml rmIL-6, 20 ng/ml rmIL-18 (all from Miltenyi Biotec) and 20 ng/ml rmIL-23 (R & D systems) were used at various combinations as specified in figures. For Th1 differentiation, 20 ng/ml rmIL-12 (R & D systems); for Th2 differentiation 20 ng/ml rmIL-4 (Miltenyi Biotec); for iTreg differentiation, 2.5 ng/ml of rhTGFβ1 were used (Miltenyi Biotec). For differentiation experiments, cells were harvested at 48 hours. For restimulation experiments, cells were differentiated for 48 hours and resuspended in fresh media with no additional cytokines for 48-72 hours. Cells were re-stimulated with PMA/ionomycin for four hours before analysis for cytokines by intracellular cytokine staining. For experiments with exogenous fatty acid, fatty acids were purchased and resuspended first with serum-free media containing BSA prior being added to culture.
Nanostring nCounter. Nanostring nCounter platform (NanoString Technologies) is used to measure the number of RNA transcripts in RNA samples (FIG. 16I, FIG. 18D). A codeset containing 312 signature genes of Th17 cell differentiation and function as well as 4 additional house-keeping genes were custom-made (Yosef et al., 2013) and used in these experiments. Experimental procedures as detailed by the manufacturer is strictly followed.

For `CCCCCCCCCCCCCCCC(=O)O` [SFA, palmitic acid], the “ATF2 expression (Nanostring), normalized to WT” value was 1.18, the “Abcg2 expression (Nanostring), normalized to WT” value was 0.77 and the “Acvr2a expression (Nanostring), normalized to WT” value was 0.66. The “Ahr expression (Nanostring), normalized to WT” value was 0.83, the “Arl5a expression (Nanostring), normalized to WT” value was 0.93 and the “Atf4 expression (Nanostring), normalized to WT” value was 1.11. For the same compound, the “BC021614 expression (Nanostring), normalized to WT” value was 0.96, the “Bcl2l11 expression (Nanostring), normalized to WT” value was 0.82 and the “Bcl3 expression (Nanostring), normalized to WT” value was 0.85. For the same compound, the “Bcl11b expression (Nanostring), normalized to WT” value was 0.82, the “Bhlhe40 expression (Nanostring), normalized to WT” value was 1.22 and the “Casp3 expression (Nanostring), normalized to WT” value was 1.21. For the same compound, the “Casp4 expression (Nanostring), normalized to WT” value was 0.95, the “Ccl1 expression (Nanostring), normalized to WT” value was 0.58 and the “Ccl20 expression (Nanostring), normalized to WT” value was 0.31. The “Ccr4 expression (Nanostring), normalized to WT” value was 0.61, the “Ccr8 expression (Nanostring), normalized to WT” value was 0.74 and the “Cd9 expression (Nanostring), normalized to WT” value was 0.84. The “Cd70 expression (Nanostring), normalized to WT” value was 0.89, the “Cd83 expression (Nanostring), normalized to WT” value was 1.23 and the “Cd86 expression (Nanostring), normalized to WT” value was 0.99. The “Cd247 expression (Nanostring), normalized to WT” value was 0.81, the “Clcf1 expression (Nanostring), normalized to WT” value was 0.74 and the “Csf2 expression (Nanostring), normalized to WT” value was 0.97. For the same compound, the “Ctla4 expression (Nanostring), normalized to WT” value was 0.81, the “Cxcl10 expression (Nanostring), normalized to WT” value was 3.83 and the “Cxcr3 expression (Nanostring), normalized to WT” value was 0.48. The “Cxcr4 expression (Nanostring), normalized to WT” value was 1.00, the “Cxcr5 expression (Nanostring), normalized to WT” value was 1.17 and the “EBF1 expression (Nanostring), normalized to WT” value was 0.51. For the same compound, the “Egr2 expression (Nanostring), normalized to WT” value was 1.53, the “Elk3 expression (Nanostring), normalized to WT” value was 0.58 and the “Ercc5 expression (Nanostring), normalized to WT” value was 0.90. The “Etv6 expression (Nanostring), normalized to WT” value was 0.94, the “Faim3 expression (Nanostring), normalized to WT” value was 0.61 and the “Fli1 expression (Nanostring), normalized to WT” value was 0.84. The “Flna expression (Nanostring), normalized to WT” value was 0.65, the “Foxo1 expression (Nanostring), normalized to WT” value was 0.79 and the “Foxp1 expression (Nanostring), normalized to WT” value was 0.77. The “Foxp3 expression (Nanostring), normalized to WT” value was 0.71, the “Frmd4b expression (Nanostring), normalized to WT” value was 1.05 and the “Fxd7 expression (Nanostring), normalized to WT” value was 1.07. For the same compound, the “Gap43 expression (Nanostring), normalized to WT” value was 1.30, the “Gem expression (Nanostring), normalized to WT” value was 1.00 and the “Gimap5 expression (Nanostring), normalized to WT” value was 1.05. For the same compound, the “Gja1 expression (Nanostring), normalized to WT” value was 0.94, the “Gmfg expression (Nanostring), normalized to WT” value was 0.62 and the “Grn expression (Nanostring), normalized to WT” value was 0.78. For the same compound, the “Gusb expression (Nanostring), normalized to WT” value was 1.02, the “Hip1r expression (Nanostring), normalized to WT” value was 0.70 and the “IL-33 expression (Nanostring), normalized to WT” value was 1.33. For the same compound, the “Ifih1 expression (Nanostring), normalized to WT” value was 0.87, the “Ifng expression (Nanostring), normalized to WT” value was 0.55 and the “Ikzf3 expression (Nanostring), normalized to WT” value was 0.82. The “Il1r1 expression (Nanostring), normalized to WT” value was 0.61, the “Il2ra expression (Nanostring), normalized to WT” value was 0.71 and the “Il3 expression (Nanostring), normalized to WT” value was 2.11. The “Il4ra expression (Nanostring), normalized to WT” value was 0.75, the “Il6st expression (Nanostring), normalized to WT” value was 0.87 and the “Il7r expression (Nanostring), normalized to WT” value was 0.85. For the same compound, the “Il10 expression (Nanostring), normalized to WT” value was 0.12, the “Il10ra expression (Nanostring), normalized to WT” value was 0.71 and the “Il12rb1 expression (Nanostring), normalized to WT” value was 0.39. The “Il12rb2 expression (Nanostring), normalized to WT” value was 0.88, the “Il17a expression (Nanostring), normalized to WT” value was 0.96 and the “Il17f expression (Nanostring), normalized to WT” value was 0.90. The “Il21 expression (Nanostring), normalized to WT” value was 1.64, the “Il23r expression (Nanostring), normalized to WT” value was 1.12 and the “Il27ra expression (Nanostring), normalized to WT” value was 0.70. The “Inhba expression (Nanostring), normalized to WT” value was 0.60 and the “Irf4 expression (Nanostring), normalized to WT” value was 0.68.
